According to PMC11434067, “Bioassay-Guided Isolation and Identification of Xanthine Oxidase Inhibitory Constituents from the Fruits of Chaenomeles speciosa (Sweet) Nakai” (Molecules, 2024):
Like-named read-outs stand apart in the source and are kept apart here.

Columns and labels:
XO [1] = molecular target: T1, XO (Bos taurus, UniProt P80457); assay: In vitro xanthine oxidase inhibition assay (uric acid formation, absorbance at 290 nm); type: biochemical
XO [2] = molecular target: T1, XO; details: cited from earlier work

T1 sequence (P80457 whole entry): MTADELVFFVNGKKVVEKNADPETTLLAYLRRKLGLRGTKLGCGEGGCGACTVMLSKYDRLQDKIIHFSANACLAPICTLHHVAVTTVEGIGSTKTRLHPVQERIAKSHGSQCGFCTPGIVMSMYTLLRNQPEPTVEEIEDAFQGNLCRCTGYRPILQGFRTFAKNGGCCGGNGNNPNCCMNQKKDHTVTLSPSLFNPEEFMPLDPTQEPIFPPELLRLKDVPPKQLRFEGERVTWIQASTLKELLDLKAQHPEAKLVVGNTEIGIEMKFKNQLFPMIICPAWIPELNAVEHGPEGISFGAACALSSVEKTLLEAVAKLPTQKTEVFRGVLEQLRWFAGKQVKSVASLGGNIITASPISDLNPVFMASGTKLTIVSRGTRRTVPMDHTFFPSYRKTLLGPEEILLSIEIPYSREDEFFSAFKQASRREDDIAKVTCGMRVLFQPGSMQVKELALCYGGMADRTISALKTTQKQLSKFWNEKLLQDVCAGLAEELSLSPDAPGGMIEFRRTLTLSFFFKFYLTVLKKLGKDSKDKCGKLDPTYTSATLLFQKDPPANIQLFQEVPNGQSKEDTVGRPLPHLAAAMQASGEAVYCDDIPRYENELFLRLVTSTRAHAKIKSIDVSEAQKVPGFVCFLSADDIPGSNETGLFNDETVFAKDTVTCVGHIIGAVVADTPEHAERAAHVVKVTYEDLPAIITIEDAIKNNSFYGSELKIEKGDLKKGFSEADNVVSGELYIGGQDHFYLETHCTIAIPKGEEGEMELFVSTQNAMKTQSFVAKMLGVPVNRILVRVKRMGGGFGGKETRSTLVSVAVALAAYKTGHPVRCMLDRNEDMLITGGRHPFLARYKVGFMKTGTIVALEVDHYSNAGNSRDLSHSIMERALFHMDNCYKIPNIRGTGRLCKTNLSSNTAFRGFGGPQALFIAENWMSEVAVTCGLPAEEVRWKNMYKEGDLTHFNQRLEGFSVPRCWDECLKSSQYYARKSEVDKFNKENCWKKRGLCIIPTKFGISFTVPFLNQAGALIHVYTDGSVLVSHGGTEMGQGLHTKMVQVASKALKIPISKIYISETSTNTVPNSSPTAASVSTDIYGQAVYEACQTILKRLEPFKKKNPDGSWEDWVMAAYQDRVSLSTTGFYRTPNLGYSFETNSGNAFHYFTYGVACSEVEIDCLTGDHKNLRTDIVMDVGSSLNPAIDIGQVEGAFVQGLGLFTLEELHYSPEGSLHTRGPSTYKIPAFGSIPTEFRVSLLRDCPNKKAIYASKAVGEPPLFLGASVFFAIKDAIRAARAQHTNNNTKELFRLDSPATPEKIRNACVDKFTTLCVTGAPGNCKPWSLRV

Structure (SMILES) | IC50 (XO [1]) | other results
COC(=O)[C@]1(O)C[C@@H](O)[C@@H](O)[C@H](OC(=O)/C=C/c2ccc(O)c(O)c2)C1 [compound 1, methyl chlorogenate] | 425 µM | –
CCCCOC(=O)C1(O)CC(O)C(O)C(OC(=O)C=Cc2ccc(O)c(O)c2)C1 (stereo not drawn) [compound 2, butyl chlorogenate] | 399 µM | –
CCOC(=O)[C@]1(O)C[C@@H](O)[C@@H](O)[C@H](OC(=O)/C=C/c2ccc(O)c(O)c2)C1 [compound 3, ethyl chlorogenate] | 450 µM | –
O=C(/C=C/c1ccc(O)c(O)c1)O[C@@H]1C[C@](O)(C(=O)O)C[C@@H](O)[C@H]1O [compound 4, chlorogenic acid] | 297 µM | type of XO inhibition (XO [2]; ref 45): noncompetitive inhibition; type of XO inhibition (XO [2]; ref 46): non-competitive inhibitory effect
COC(=O)C1(O)C[C@@H](O)C(OC(=O)/C=C/c2ccc(O)c(O)c2)[C@H](O)C1 (stereo partly drawn) [compound 5, cryptochlorogenic acid methyl ester] | 600 µM | –
O=C(O)/C=C/c1ccc(O)c(O)c1 [compound 6, caffeic acid] | 242 µM | –
O=C(O)/C=C/c1ccc(O)cc1 [compound 7, p-coumaric acid] | 351 µM | –
O=C(O)c1ccccc1 [compound 8, benzoic acid] | 104 µM | inhibition of XO at low concentration (in words) (XO [1]; concentration lower than 200 µM): high inhibition
O=C(O)c1ccc(O)c(O)c1 [compound 9, protocatechuic acid] | 651 µM | –
